Reference: US20040043403A1, “Process for determining the biological activity of epidermal growth factor receptor tyrosine kinase inhibitors” (priority 2000, published 2004)

Assays:
[1] = tested on: A431 cells; assay: UniGEM 1 cDNA array expression profile of A431 cells; type: cell-based, human; settings: 24 hours
Method: The following tissue culture cells are chosen because of their EGFR expression status (Table 1). EGFR expression is measured by Western blotting, using anti-EGFR monoclonal antibodies from Transduction Labs (Lexington, Ky.). The cell lines are obtained from the ATCC (Rockville, […].). The cells are cultured in 5% CO2 at 37° C.
20 million tissue culture cells (about 80% confluent) or 200 million WBCs are incubated for 2 or 24 h in culture medium containing 3 μM of an EGFR tyrosine kinase inhibitor or 0.03% DMSO. Total RNA from cell pellet is isolated using the RNeasy kit (Qiagen). mRNA is isolated using the oligotex mRNA purification kit (Qiagen). The quality of the obtained mRNA is tested by real time RT-PCR using beta-Actin primers (PE Applied Biosystems) with an amplicon size of 300 base pairs (bp). The total RNA is used as a reference to calculate the amount of mRNA-enrichment in the oligotex purified samples.
Probes for the UniGEM hybridization are synthesized by Incyte Genomics (Palo Alto, Calif., USA). For each probe 200 ng mRNA (50 ng/μl) is shipped in dry ice. The results are analyzed using the Expressionist Software Package provided by GeneData.
Expression profiles (UniGEM V arrays) of 4 tumor cell lines with different EGFR expression status (A431, NCI-H596, NCI-H520 and MDA-MB-468) and of WBCs upon exposure of cells to 3 μM of COMPOUND A for 2 or 24 h are analyzed. As control, cells treated with DMSO for the same time period are used. […] The cDNA array hybridization is repeated with the UniGEM 1 array using the same mRNA (Table 3).

[2] = tested on: NCI-H596; assay: Western blot of clusterin induction in NCI-H596 cells; type: cell-based, human; settings: NCI-H596 cells (moderate levels of EGFR), 300 nM, 24 h, vs 0.03% DMSO
Method: An EGFR tyrosine kinase inhibitor is dissolved in DMSO to obtain a 10 mM stock solution. The stock solution is further diluted in culture medium to final concentrations of 10 nM to 3 μM. 3.5 million cells/100 mm dish/12 ml culture medium are incubated for 24 h in 5% CO2 at 37° C. The medium is replaced with medium containing the EGFR tyrosine kinase inhibitor or DMSO. Cells are incubated for 4 to 32 h. The frozen pellets are lysed in 500 μl of lysis buffer (50 mM Tris-HCl pH 7.5, 1% Sodium Dodecyl Sulfate (SDS)). To shear genomic DNA, the cell lysates are processed in a FastPrep instrument for 20 sec at a speed rating of 4, using the green […] tubes (Bio101#6040-6010). Protein concentrations are determined according to the PIERCE-method (BCA Protein Assay, Reagent A and B). Protein concentration of lysates is adjusted to 1 μg/μl with lysis buffer. 4 parts of cell lysates are mixed with 1 part of 5 fold concentrated Laemmli buffer, the lysates are stored at -20° C. 40 μl of cell lysate is heated for 3 min to 95° C. and directly loaded on to 10% or 15% SDS-PAGE gels. The gels are run at 130 V for 90 min under standard conditions. The separated proteins are semi-dry blotted on to a PVDF membrane (Immobilon-P, Millipore #IPVH 202 00) for 70 min with 45 mA per blot. […]

For `C[C@@H](Nc1ncnc2[nH]c(-c3ccc(O)cc3)cc12)c1ccccc1` [COMPOUND A, (R)-6-(4-hydroxy-phenyl)-4-[(1-phenyl-ethyl)-amino]-7H-pyrrolo[2,3-d]pyrimidine], the “Gene induction, Micro Array UniGEM 1: Acute phase serum amyloid A protein” value ([1]; 3 μM, RNA from Experiment 1) was 4.4, the “Gene induction, Micro Array UniGEM 1: Cathepsin H” value ([1]; 3 μM, RNA from Experiment 1) was 2.2 and the “Gene induction, Micro Array UniGEM 1: Caveolin” value ([1]; 3 μM, RNA from Experiment 1) was 3.4. The “Gene induction, Micro Array UniGEM 1: Complement component 3 (C3)” value ([1]; 3 μM, RNA from Experiment 1) was 3.1, the “Gene induction, Micro Array UniGEM 1: Complement cytolysis inibitor (Clusterin)” value ([1]; 3 μM, RNA from Experiment 1) was 2.7 and the “Gene induction, Micro Array UniGEM 1: DNA binding protein inhibitor ID-3” value ([1]; 3 μM, RNA from Experiment 1) was 2.1. The “Gene induction, Micro Array UniGEM 1: Extracellular protein S1-5” value ([1]; 3 μM, RNA from Experiment 1) was 3.3, the “Gene induction, Micro Array UniGEM 1: TGF-beta induced gene” value ([1]; 3 μM, RNA from Experiment 1) was 2.1 and the “Gene induction, Micro Array UniGEM 1: TRAIL” value ([1]; 3 μM, RNA from Experiment 1) was 3.0. The “Gene induction, Micro Array UniGEM 1: VAC-beta (annexin VIII)” value ([1]; 3 μM, RNA from Experiment 1) was 3.0, the “Differential Expression (Balanced): Human D-type cyclin (CCND2) mRNA {IM359412}” value ([1]; GB Acc. No. AA010487, 3 μM, versus DMSO treated cells, negative numbers: repressed genes) was −8.2 and the “Differential Expression (Balanced): ESTs {IM365120}” value ([1]; GB Acc. No. AA025124, 3 μM, versus DMSO treated cells) was 2.7. For the same compound, the “Differential Expression (Balanced): Human HE4 mRNA for extracellular protease {IM366323}” value ([1]; GB Acc. No. AA025750, 3 μM, versus DMSO treated cells) was 2.6, the “Differential Expression (Balanced): Human mRNA for precursor of epidermal growth factor receptor {IM469272}” value ([1]; GB Acc. No. AA026089, 3 μM, versus DMSO treated cells) was 2.8 and the “Differential Expression (Balanced): Human cyclin-dependent protein kinase mRNA {IM366824}” value ([1]; GB Acc. No. AA029438, 3 μM, versus DMSO treated cells) was 2.8. The “Differential Expression (Balanced): Human extracellular protein (S1-5) mRNA {IM470007}” value ([1]; GB Acc. No. AA030000, 3 μM, versus DMSO treated cells) was 3.3, the “Differential Expression (Balanced): ESTs {IM471869}” value ([1]; GB Acc. No. AA035156, 3 μM, versus DMSO treated cells) was 3.0 and the “Differential Expression (Balanced): Human nucleotide-binding protein mRNA; c {IM376052}” value ([1]; GB Acc. No. AA039353, 3 μM, versus DMSO treated cells, negative numbers: repressed genes) was −3.5. For the same compound, the “Differential Expression (Balanced): ESTs {IM485336} contains Alu repetitive elements” value ([1]; GB Acc. No. AA039628, 3 μM, versus DMSO treated cells, negative numbers: repressed genes) was −6.8, the “Differential Expression (Balanced): Human 5′-AMP-activated protein kinase; g {IM376178}” value ([1]; GB Acc. No. AA040600, 3 μM, versus DMSO treated cells, negative numbers: repressed genes) was −4.1 and the “Differential Expression (Balanced): Human mRNA for pancreatic carcinoma marker {IM376296} (Trop-2)” value ([1]; GB Acc. No. AA041250, 3 μM, versus DMSO treated cells) was 3.0. For the same compound, the “Differential Expression (Balanced): Human complement component 3 (C3) gene {IM485717}” value ([1]; GB Acc. No. AA041549, 3 μM, versus DMSO treated cells) was 3.1, the “Differential Expression (Balanced): Human annexin VIII mRNA; complete cds. {IM376634} (VAC-beta)” value ([1]; GB Acc. No. AA046102, 3 μM, versus DMSO treated cells) was 3.0 and the “Differential Expression (Balanced): Human mRNA for caveolin {IM488533}” value ([1]; GB Acc. No. AA047243, 3 μM, versus DMSO treated cells) was 3.4. For the same compound, the “Differential Expression (Balanced): Fibronectin {IM512287}” value ([1]; GB Acc. No. AA057694, 3 μM, versus DMSO treated cells, negative numbers: repressed genes) was −8.8, the “Differential Expression (Balanced): ESTs {IM377004}” value ([1]; GB Acc. No. AA057780, 3 μM, versus DMSO treated cells) was 2.7 and the “Differential Expression (Balanced): TransformIng growth factor-beta induced gene product (BIGH3)” value ([1]; GB Acc. No. AA057802, 3 μM, versus DMSO treated cells) was 2.1. For the same compound, the “Differential Expression (Balanced): Human mRNA for cathepsin H (E.C.3.4.22.1) {IM489348}” value ([1]; GB Acc. No. AA058337, 3 μM, versus DMSO treated cells) was 2.2, the “Differential Expression (Balanced): Human fibronectin gene extra type III re {IM151144}” value ([1]; GB Acc. No. H03907, 3 μM, versus DMSO treated cells, negative numbers: repressed genes) was −6.9 and the “Differential Expression (Balanced): ESTs {IM46265}” value ([1]; GB Acc. No. H09077, 3 μM, versus DMSO treated cells, negative numbers: repressed genes) was −21.9. For the same compound, the “Differential Expression (Balanced): Human ribosomal protein L5 pseudogene mRNA {IM50482}” value ([1]; GB Acc. No. H17614, 3 μM, versus DMSO treated cells, negative numbers: repressed genes) was −3.6, the “Differential Expression (Balanced): ESTs {IM172005}” value ([1]; GB Acc. No. H18621, 3 μM, versus DMSO treated cells, negative numbers: repressed genes) was −3.1 and the “Differential Expression (Balanced): Human acute phase serum amyloid A protein {IM161456}” value ([1]; GB Acc. No. H25546, 3 μM, versus DMSO treated cells) was 4.4. For the same compound, the “Differential Expression (Balanced): Human TNF-related apoptosis inducing ligand TRAIL {IM203132}” value ([1]; GB Acc. No. H54629, 3 μM, versus DMSO treated cells) was 4.0, the “Differential Expression (Balanced): Human complement cytolysis inhibitor (CLI) mRNA; complete cds (Clusterin)” value ([1]; GB Acc. No. M25915, 3 μM, versus DMSO treated cells) was 2.7 and the “Differential Expression (Balanced): ESTs {248032}” value ([1]; GB Acc. No. N53767, 3 μM, versus DMSO treated cells) was 2.6. The “Differential Expression (Balanced): Rat N-syndecan mRNA {IM26677}” value ([1]; GB Acc. No. R13994, 3 μM, versus DMSO treated cells) was 2.9, the “Differential Expression (Balanced): Human fibronectin (fn) 3′ coding region {IM136798}” value ([1]; GB Acc. No. R36450, 3 μM, versus DMSO treated cells, negative numbers: repressed genes) was −4.7 and the “Differential Expression (Balanced): ESTs {IM23605}” value ([1]; GB Acc. No. R39436, 3 μM, versus DMSO treated cells) was 2.6. For the same compound, the “Differential Expression (Balanced): PUTATIVE LYMPHOCYTE G0/G1 SWITCH PROTEIN 2 {IM67939}” value ([1]; GB Acc. No. T52813, 3 μM, versus DMSO treated cells, negative numbers: repressed genes) was −3.3, the “Differential Expression (Balanced): ESTs {IM73785}” value ([1]; GB Acc. No. T54672, 3 μM, versus DMSO treated cells) was 2.6 and the “Differential Expression (Balanced): ESTs {IM74546}” value ([1]; GB Acc. No. T59122, 3 μM, versus DMSO treated cells) was 2.9. For the same compound, the “Differential Expression (Balanced): Human mitosin mRNA; complete cds. {IM113765}” value ([1]; GB Acc. No. T76993, 3 μM, versus DMSO treated cells, negative numbers: repressed genes) was −3.0, the “Differential Expression (Balanced): DNA-BINDING PROTEIN INHIBITOR ID-3 {IM323946}” value ([1]; GB Acc. No. W46413, 3 μM, versus DMSO treated cells) was 2.1 and the “Differential Expression (Balanced): Human nuclear orphan receptor LXR-alpha {IM357775}” value ([1]; GB Acc. No. W95433, 3 μM, versus DMSO treated cells, negative numbers: repressed genes) was −3.0. The “Clusterin induction, Western blot (FIG. 4)” value [2] was “no significant clusterin induction”.
